The source of these data is patent US5688774A (priority 1995, dated 1997).

Like-named read-outs stand apart in the source and are kept apart here.

For assay [1], the target named is T1, A3 receptors (Rattus norvegicus, UniProt P28647).
T1 sequence (P28647 1-320): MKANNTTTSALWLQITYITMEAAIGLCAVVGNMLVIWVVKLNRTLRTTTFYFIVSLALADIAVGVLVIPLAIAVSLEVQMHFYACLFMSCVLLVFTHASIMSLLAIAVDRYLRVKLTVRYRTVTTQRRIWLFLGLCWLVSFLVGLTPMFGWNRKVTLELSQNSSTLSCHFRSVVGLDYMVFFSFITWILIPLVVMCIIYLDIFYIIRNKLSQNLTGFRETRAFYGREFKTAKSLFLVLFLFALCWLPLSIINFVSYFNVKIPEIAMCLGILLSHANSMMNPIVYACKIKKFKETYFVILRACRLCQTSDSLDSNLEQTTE
As to the kind of experiment: A3 receptor binding selectivity. Particulars: in words.

For assay [2], the target named is T2, rat brain A2a receptor (Rattus norvegicus, UniProt P30543).
T2 construct: A2 receptors from rat striatal membranes; from tissue; host or cells: rat striatal membranes
T2 sequence (P30543 whole entry): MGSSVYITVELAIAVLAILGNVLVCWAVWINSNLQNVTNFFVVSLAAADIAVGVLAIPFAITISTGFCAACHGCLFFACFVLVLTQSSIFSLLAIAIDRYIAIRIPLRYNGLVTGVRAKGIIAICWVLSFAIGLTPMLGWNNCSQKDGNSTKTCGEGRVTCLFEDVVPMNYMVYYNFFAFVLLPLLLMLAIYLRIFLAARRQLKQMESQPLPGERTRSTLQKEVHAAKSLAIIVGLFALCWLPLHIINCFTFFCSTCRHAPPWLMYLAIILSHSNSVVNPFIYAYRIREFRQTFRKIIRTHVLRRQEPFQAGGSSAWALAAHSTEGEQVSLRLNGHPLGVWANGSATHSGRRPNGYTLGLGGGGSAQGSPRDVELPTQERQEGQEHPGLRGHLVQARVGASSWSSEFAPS
Kind of assay: Displacement of [^3 H]CGS 21680 binding at A2a receptors. The procedure: Rat cerebral cortical and striatal membranes were prepared (Jacobson et al., J. Med. Chem., 35, 4143-4149 (1992)) and treated with ADA for 30 min at 37° C. prior to storage at -70° C.
The stock solutions were diluted with DMSO to a concentration of ≤0.1 mM prior to addition to the aqueous medium. The final concentration of DMSO in the assay medium was generally 2%.
At least six different concentrations spanning three orders of magnitude, adjusted appropriately for the IC50 of each compound, were used. […]. Pharmacol., 22, 3099-3108 (1973)).

Assay [3] addresses T3, rat brain A1 receptor (Rattus norvegicus, UniProt P25099).
T3 construct: Rat cerebral cortical and striatal membranes were prepared; from tissue; host or cells: rat brain membranes (cerebral cortical)
T3 sequence (P25099 1-326): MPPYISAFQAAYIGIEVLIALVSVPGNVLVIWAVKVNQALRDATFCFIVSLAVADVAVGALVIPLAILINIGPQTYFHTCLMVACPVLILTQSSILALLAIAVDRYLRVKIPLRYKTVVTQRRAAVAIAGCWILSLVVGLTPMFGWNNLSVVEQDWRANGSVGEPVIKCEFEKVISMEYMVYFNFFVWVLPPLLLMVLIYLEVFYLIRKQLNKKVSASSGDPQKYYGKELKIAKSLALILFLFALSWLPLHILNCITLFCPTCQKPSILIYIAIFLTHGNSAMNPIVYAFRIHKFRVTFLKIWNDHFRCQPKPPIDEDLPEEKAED
Kind of assay: Displacement of [^3 H]PIA binding at A1 receptors.

Assay [4] has as its target T4, rat A3 adenosine receptors (Rattus norvegicus, UniProt P28647).
T4 construct: expressed in transfected cells; host or cells: CHO cells, stably transfected
T4 sequence (P28647 1-320): T1 sequence (P28647 1-320)
Kind of assay: Inhibition of adenylate cyclase in CHO cells stably transfected with rat A3 adenosine receptors. In kind it is cell-based. Also noted: key to Effect on IB-MECA dose-resp. curve: no effect. Particulars: for Ratio Conc./Ki (A3): test concentration divided by Ki (A3); for agonist efficacy in inhibition of adenylate cyclase: via rat A3 receptors.

The test system of assay [5] is A3 receptor. Particulars: coadministered with a xanthine antagonist that does not act at A3 receptors; cited from earlier work.
The target in assay [6] is T1, A3 receptors. The settings on record: in words; Zhou et al.; cited from earlier work.
Assay [7] relates to NMDA-induced seizures in mice. The settings on record: cited from earlier work.
In assay [8] the test system is ischemic model in gerbils. Particulars: cited from earlier work.
[9] abbreviates: [^3 H]CGS 21680, rat brain membranes, Ki ± S.E.M., n = 3-6.
The mark [10] stands for this setting: [^3 H]PIA, rat brain membranes, Ki ± S.E.M., n = 3-6.
Where [11] appears, read: CHO, 1 μM forskolin, average ± S.E.M. for 2-3 determinations or a single value, read-out: % Inhib. (adenylate cyclase).

For `CCNC(=O)[C@H]1O[C@@H](n2cnc3c(N)nc(NCCc4ccc(CCC(=O)NCCN)cc4)nc32)[C@H](O)[C@@H]1O` [APEC], the “tolerance of 2-substitution at A3 receptors” value in assay [1] is on record as “well-tolerated”.

As to `CNC(=O)[C@H]1O[C@@H](n2cnc3c(NCc4cccc(I)c4)nc(Cl)nc32)[C@@H]2OC(=S)O[C@@H]21` [Compound 46, 2-Chloro-9-(2',3'-O-Thiocarbonyl-β-D-5-Methyl-Ribofuronamido)-N^6-(3-Iodobenzyl)adenine], the Ki turned out to be 0.871 ± 0.219 µM in assay [2] (setting [9]) and 0.179 ± 0.024 µM in assay [3] (setting [10]). The inhibition at 100 µM in assay [4] (setting [11]) is 54.5 ± 8.1%. Also, the “Ratio Conc./Ki (A3)” value in assay [4] came out at 8200.

For `CNC(=O)[C@@H]1C[C@H](N=[N+]=[N-])[C@H](n2cnc3c(NCc4cccc(I)c4)nc(Cl)nc32)O1` [Compound 42, 2-Chloro-9-(2'-Azido-2',3'-Dideoxy-β-D-5'-Methyl-Arabinofuronamido)-N^6 (3-Iodobenzyladenine)], the Ki in assay [2] (setting [9]) came out at 28.1 ± 3.2 µM; in assay [3] (setting [10]), 0.401 ± 0.041 µM. In addition, the inhibition at 100 µM in assay [4] (setting [11]) was determined as 27.8%. Also, in assay [4], the “Ratio Conc./Ki (A3)” value stood at 17.

Turning to `OC[C@H]1O[C@@H](n2cnc3c(NCc4cccc(I)c4)nc(Cl)nc32)[C@H](O)[C@@H]1O` [2-chloro-N^6-(3-iodobenzyl)-adenosine], the “tolerance of 2-substitution at A3 receptors” value in assay [1] is listed as “well-tolerated”.

For `CNC(=O)[C@@H]1C[C@@H](O)[C@H](n2cnc3c(NCc4cccc(I)c4)nc(Cl)nc32)O1` [Compound 41b, 2-Chloro-9-(3-Deoxy-β-D-5-Methyl-Ribofuronamido)-N^6-(3-Iodobenzyl)adenine], the results for the Ki in assay [2] (setting [9]) and in assay [3] (setting [10]) were 4.66 ± 0.74 µM and 1.03 ± 0.15 µM, respectively. Besides, the inhibition at 100 µM in assay [4] (setting [11]) stood at 49.2 ± 3.7%. Further, the “Ratio Conc./Ki (A3)” value in assay [4] was found to be 3000.

Regarding `CSc1nc(NCc2cccc(I)c2)c2ncn(C[C@@H](O)CO)c2n1` [Compound 19b, R-N^6-(3-Iodobenzyl)-9-(2,3-dihydroxypropyl)-2-methylthioadenine], the “Effect on IB-MECA dose-resp. curve” value in assay [4] (1 μM forskolin) is given as “c”. Further, in assay [4] (setting [11]), the inhibition at 40 µM came out at 7.4 ± 3.7%. The “Ratio Conc./Ki (A3)” value in assay [4] is 4.6.

In the case of `CCNC(=O)[C@H]1O[C@@H](n2cnc3c(NCc4ccccc4)ncnc32)[C@H](O)[C@@H]1O` [N^6-benzyladenosine-5'-N-ethyluronamide, reference compound], the “selectivity for rat A3 receptors vs. either A1 or A2a receptors in binding assays” value in assay [1] is reported as “only one order of magnitude selective”. Also, the “agonist efficacy in inhibition of adenylate cyclase” value in assay [4] (in words) is “full agonists”.

For `CNC(=O)[C@H]1O[C@@H](n2cnc3c(NCc4cccc(I)c4)nc(Cl)nc32)[C@H](O)[C@@H]1O` [2-chloro-N^6-(3-iodobenzyl)-adenosine-5'-N-methyluronamide, reference compound], in assay [4] (in words), the “agonist efficacy in inhibition of adenylate cyclase” value is recorded as “full agonist”. In addition, the “agonist potency in inhibition of adenylate cyclase” value in assay [4] (in words, vs. other agonists) is “greater than that of other agonists”.

Consider `Nc1ccc(CCNc2ncnc3c2ncn3[C@@H]2O[C@H](CO)[C@@H](O)[C@H]2O)cc1` [APNEA, N^6-2-(4-aminophenyl)ethyladenosine], for which, in assay [5], the “cardioprotective potential of A3 receptor activation” value is given as “has been demonstrated”. In addition, the “activity at the A3 receptor” value in assay [6] is recorded as “agonists for the A3 receptor”.

`CSc1nc(NCc2cccc(I)c2)c2ncn(C)c2n1` [Compound 16, N^6-(3-Iodobenzyl)-9-Methyl-2-Methylthioadenine]: the Ki in assay [2] (setting [9]) was 1.64 ± 0.39 µM; in assay [3] (setting [10]), 1.89 ± 0.59 µM. Also, the “Effect on IB-MECA dose-resp. curve” value in assay [4] (1 μM forskolin) was “c”. Besides, the inhibition at 100 µM in assay [4] (setting [11]) worked out at 19.5%. For the same molecule, in assay [4], the “Ratio Conc./Ki (A3)” value is 330.

`CC(C)[Si]1(C(C)C)OC[C@H]2O[C@@H](n3cnc4c(NCc5cccc(I)c5)nc(Cl)nc43)[C@H](O)[C@@H]2O[Si](C(C)C)(C(C)C)O1` [Compound 45, 2-Chloro-9-(3,5-1,1,3,3-Tetraisopropyldisiloxyl-β-D-5-Ribofuranosyl)-N^6-(3-Iodobenzyl)adenine]: the “% Inhibition (A2a)” value in assay [2] (at 10^-4, [^3 H]CGS 21680, rat brain) is reported as 18 ± 2%. In assay [3] (setting [10]), affinity was put at a Ki of 66.3 ± 19.8 µM. Moreover, the inhibition at 100 µM in assay [4] (setting [11]) stood at 8.7%. Moreover, the “Ratio Conc./Ki (A3)” value in assay [4] was 7.6.

As to `CNC(=O)[C@@H]1C[C@H](F)[C@H](n2cnc3c(NCc4cccc(I)c4)nc(Cl)nc32)O1` [Compound 44, 2-Chloro-9-(2',3'-Dideoxy-2'-Fluoro-β-D-5'-Methyl-Arabinofuronamido)-N^6-(3-Iodobenzyl)adenine], the inhibition at 100 µM in assay [4] (setting [11]) turned out to be 11.2%. The “Ratio Conc./Ki (A3)” value in assay [4] was 5.6.

Turning to `CNC(=O)[C@@H]1C[C@@H](OC(C)=O)[C@H](n2cnc3c(NCc4cccc(I)c4)nc(Cl)nc32)O1` [Compound 37, 9-(2-Acetyl-3-Deoxy-β-D-5-Methyl-Ribofuronamido)-2-Chloro -N^6-(3-Iodobenzyl)adenine], the Ki in assay [2] (setting [9]) is 15.9 ± 3.7 µM; in assay [3] (setting [10]) it was 0.778 ± 0.044 µM. In addition, the inhibition at 20 µM in assay [4] (CHO, 20 μM, 1 μM forskolin, average ± S.E.M. for 2-3 determinations or a single value, read-out: % Inhib. (adenylate cyclase)) came to 12.7 ± 1%. Moreover, in assay [4], the “Ratio Conc./Ki (A3)” value worked out at 320.

Regarding `CNC(=O)[C@@H]1CC[C@H](n2cnc3c(NCc4ccccc4)nc(Cl)nc32)O1` [Compound 40, 2-Chloro-9-(2,3-Dideoxy-β-D-5-Methyl-Ribofuronamido)-N^6 -Benzyladenine], the values for the Ki in assay [2] (setting [9]) and in assay [3] (setting [10]) were 220 ± 65 µM and 11.5 ± 1.3 µM, respectively. Moreover, the “Effect on IB-MECA dose-resp. curve” value in assay [4] (1 μM forskolin) was “c”. For the same molecule, in assay [4] (setting [11]), the inhibition at 40 µM was 18.1 ± 8.7%. In assay [4], the “Ratio Conc./Ki (A3)” value came out at 1.3.

Take `O[C@@H]1[C@H](O)CO[C@H]1n1cnc2c(NCc3cccc(I)c3)nc(Cl)nc21` [Compound 28, 2-Chloro-9-(b-D-erythrofuranoside)-N^6-(3-iodobenzyl)adenine]: the values for the Ki in assay [2] and in assay [3] were 2.89 ± 1 µM and 0.811 ± 0.123 µM, respectively. For the same molecule, in assay [4] (setting [11]), the inhibition at 100 µM worked out at 42.2%. Further, the “Ratio Conc./Ki (A3)” value in assay [4] turned out to be 360.

Regarding `CNC(=O)[C@H]1O[C@@H](n2cnc3c(NCc4cccc(I)c4)ncnc32)[C@H](O)[C@@H]1O` [IB-MECA, N^6-(3-iodobenzyl)adenosine-5'-N-methyluronamide], the “cerebroprotective effects, NMDA-induced seizures” value in assay [7] is given as “cerebroprotective effects”. Moreover, the “cerebroprotective effects, ischemic model” value in assay [8] is reported as “cerebroprotective effects”.

For orientation: Ki means the equilibrium dissociation constant of an inhibitor or competing ligand from its target.
